Experimental data reported in patent US20070082937A1, “Anti cancer combinations comprising a cox-2 inhibitor” (Cancer Research Technology Limited, priority 2003, published 2007).

Key:
colon 38 tumours = assay: Tumour growth delay assay; format: in vivo, mice
Method: C57B1/6 mice from the Animal Resource Unit, University of Auckland, were bred and housed under conditions of constant temperature and humidity, with sterile bedding and food, according to institutional ethical guidelines. All mice were aged between 8 and 12 weeks.
DMXAA was synthesized as the sodium salt (Rewcastle et al., (1990) Journal of National Cancer Institute 82:528-529). DMXAA sodium salt was dissolved in neutral aqueous solution and 25 mg/kg, in a volume of 0.1 ml per 10 g body weight, was injected intraperitoneally (i.p.) into mice.
Vioxx™ (Sigma) was made up in neutral aqueous solution and 100 or 150 mg/kg, in a volume of 0.1 ml per 10 g body weight, was injected intraperitoneally (i.p.) into mice. […]
Colon 38 tumour fragments (˜1 mm^3) were implanted subcutaneously (s.c.) in anaesthetized (sodium pentobarbitone, 90 mg/kg) mice. […] Tumour-bearing mice were treated with drugs according to the administration schedule described before, and the tumours measured using calipers, at three day intervals thereafter. Tumour volumes were calculated as 0.52a^2b, where a and b are the minor and major axes of the tumour, respectively. The arithmetic means were calculated for each time point, counting cured tumours as zero volume. The growth delay was determined as the difference in the number of days required for the control versus treated tumours to increase four times in volume. […]

tumour blood flow = details: human tumours, well-tolerated doses, dynamic MRI; cited from earlier work

SMILES	effect on the growth of colon 38 tumours (colon 38 tumours; Vioxx alone 150 mg/kg i.p., colon 38 tumours s.c. in C57Bl/6 mice)	mice cured (colon 38 tumours; DMXAA alone 25 mg/kg i.p., colon 38 tumours s.c. in mice, 6 mice)	tumour blood flow (tumour blood flow)
CS(=O)(=O)c1ccc(C2=C(c3ccccc3)C(=O)OC2)cc1 [Vioxx™, rofecoxib, reference compound]	no significant effect		
Cc1ccc2c(=O)c3cccc(CC(=O)O)c3oc2c1C [DMXAA, 5,6-dimethylxanthenone-4-acetic acid]		None and no cure	significant reduction
